Key:
[1] = tested on: cDNA-expressed recombinant human cytochrome P450s and silensomes as well as human liver microsomes with selective chemical CYP inhibitors; set-up: method as in unpublished data; conditions: conducted in Hutch-Med DMPK department ref unpublished data; cited from earlier work
[2] = Metabolite profiling and identification in plasma, urine and feces (LC/RAM/MS); format: in vivo, human; conditions: for Plasma %AUC (percentage of total plasma radioactivity): AUC-pooled 0–72 h plasma; for Plasma %AUC (percentage of total plasma radioactivity) / Urine %Dose / Feces %Dose: mean of 6 subjects; for Urine %Dose: pooled 0–72 h urine, total in urine 37.15%; for Feces %Dose: pooled 0–168 h feces, total in feces 62.08%
Method: The plasma samples from six subjects were pooled individually according to the AUC method to obtain 6 plasma samples of 0–72 h ([Hop et al., 1998]). A portion of the proportionally mixed plasma sample was taken and added to a certain volume of acetonitrile (3×, v/v) for extraction, vortexed for 1 min, shaken for 10 min and then stored in a refrigerator at 4°C for 30 min, the mixture was removed and vortexed for 2 min and then centrifuged for 10 min at 10,000×g and 4°C. The residue from the extraction was firstly ultrasonically suspended using 1 mL of ultrapure water and then extracted using methanol (2×, v/v) and repeated twice. The organic solvent extracts were combined, blown dry with nitrogen and reconstituted with acetonitrile: ultrapure water (1:1), the reconstituted solution was centrifuged at 4°C and 10,000×g for 10 min, and the supernatant was used for radio-metabolite profiling.
The radioactivity in the organic solvent extract and the reconstitution solution was determined by LSC. The solid residue after extraction was dissolved by heating with 1N KOH solution and added to the scintillation solution to determine its radioactivity. All the final data were used to examine the recovery of radioactivity during plasma extraction.
The urine samples from the six subjects were mixed in the same volume percentage to obtain six 0–72 h urine samples. A portion of the proportionally mixed urine sample was centrifuged for 10 min at approximately 10,000×g and 4°C. Two samples were taken before and after centrifugation, and the radioactivity of the samples was determined by LSC, and the data obtained were used to calculate the recovery of radioactivity during the centrifugation process. A portion of the supernatant after centrifugation was used directly for radio-metabolite profiling.
The fecal samples from the six subjects were mixed with the same weight percentage to obtain 6 fecal homogenate samples of 0–168 h. A portion of the proportionally mixed fecal homogenate samples was taken and extracted by adding a volume of acetonitrile (3×, v/v), vortexed for 5 min at room temperature, sonicated for 5 min and then centrifuged for 10 min at 10,000 × g and 4°C. The residue of the extracted material was firstly sonicated and mixed using about 1 mL of ultrapure water before extracted using methanol (2×, v/v). The process was repeated twice and the organic extracts were combined, blown dry using nitrogen and then reconstituted with dimethyl sulfoxide: acetonitrile: ultrapure water (3:2:5), the reconstituted solution was centrifuged at 10,000×g at 4°C for 10 min and the supernatant was used for radio-metabolite profiling. […] LSC was used to determine the intensity of radioactivity contained in the organic solvent extract and in the reconstituted solution. The solid residue after extraction is fully combusted by an oxidative combustor, and the [^14C]carbon dioxide produced by combustion of the sample is captured with a scintillation solution to determine its radioactivity intensity. All final data were used to examine the extraction and recovery of radioactivity from fecal homogenate samples.
A high performance liquid chromatograph coupled with an online isotope detector and mass spectrometry (LC/RAM/MS) was used for the identification of radioactive metabolite profiles. The HPLC method consisted of an HPLC system (Shimadzu UFLC-20A-Lite), a chromatographic column (ACE Excel 3 C18, 150 × 4.6 mm id), mobile phase A (0.4% aqueous formic acid, pH = 3.2 adjusted with ammonia) and mobile phase B (acetonitrile) at a flow rate of 0.7 mL/min. The gradient was 0% B for the 0–5 min, 20% B from 15 min to 30 min, 22% B from 32 to 40 min, and 70%–100% B from 60 to 72 min. The column temperature was 28°C. […]

F: %Dose in feces (Figure 4) [2]	P: %AUC in plasma (Figure 4) [2]	U: %Dose in urine (Figure 4) [2]	Feces %Dose [2]	%Dose in pooled feces ([2]; subject 01001)	%Dose in pooled feces ([2]; subject 01002)	%Dose in pooled feces ([2]; subject 01003)	%AUC in AUC-pooled plasma ([2]; subject 01004)	%Dose in pooled feces ([2]; subject 01004)	%AUC in AUC-pooled plasma ([2]; subject 01005)	%Dose in pooled feces ([2]; subject 01005)	%AUC in AUC-pooled plasma ([2]; subject 01006)	%Dose in pooled feces ([2]; subject 01006)	SMILES	enzyme involved in the formation of the metabolite from amdizalisib [1]	Plasma %AUC (percentage of total plasma radioactivity) [2]	Urine %Dose [2]	further results
11.30%	20.91%	8.08%	11.30 %Dose	9.93 %Dose	13.05 %Dose	10.17 %Dose	16.67 %AUC	5.32 %Dose	20.09 %AUC	14.97 %Dose	36.04 %AUC	14.33 %Dose	C[C@H](Nc1nc(O)nc(N)c1C#N)c1cc2ncc(Cl)n2nc1-c1ccccc1 [M406-2]	aldehyde oxidase	20.91 %AUC	8.08 %Dose	contribution to amdizalisib metabolism ([2]; estimated from the metabolite amounts in excreta): around 20%; %AUC in AUC-pooled plasma ([2]; subject 01001): 16.31 %AUC; %Dose in pooled urine ([2]; subject 01001): 8.77 %Dose; %AUC in AUC-pooled plasma ([2]; subject 01002): 16.12 %AUC; %Dose in pooled urine ([2]; subject 01002): 9.03 %Dose; %AUC in AUC-pooled plasma ([2]; subject 01003): 20.20 %AUC; %Dose in pooled urine ([2]; subject 01003): 8.92 %Dose; %Dose in pooled urine ([2]; subject 01004): 7.29 %Dose; %Dose in pooled urine ([2]; subject 01005): 6.50 %Dose; %Dose in pooled urine ([2]; subject 01006): 7.98 %Dose
5.06%	0.12%		5.06 %Dose	4.78 %Dose	5.18 %Dose	5.65 %Dose	0.16 %AUC	6.15 %Dose	0.26 %AUC	4.03 %Dose	0.27 %AUC	4.54 %Dose	C[C@H](Nc1ncnc(N)c1C#N)c1cc2ncc(Cl)n2nc1-c1ccc(O)cc1 [M406-1]	formed primarily by CYP2C9	0.12 %AUC		
1.04%	+	+	1.04 %Dose	0.40 %Dose	0.91 %Dose	2.11 %Dose		0.69 %Dose		1.53 %Dose		0.60 %Dose	C[C@H](Nc1ncnc(N)c1C(N)=O)c1cc2ncc(Cl)n2nc1-c1ccccc1 [M408]		detected by mass spectrometry, but could not be quantified and +	detected by mass spectrometry, but could not be quantified and +	

SMILES	F: %Dose in feces (Figure 4) [2]	P: %AUC in plasma (Figure 4) [2]	U: %Dose in urine (Figure 4) [2]	Feces %Dose [2]	%Dose in pooled feces ([2]; subject 01001)	%Dose in pooled feces ([2]; subject 01002)	%Dose in pooled feces ([2]; subject 01003)	%AUC in AUC-pooled plasma ([2]; subject 01004)	%Dose in pooled feces ([2]; subject 01004)	%AUC in AUC-pooled plasma ([2]; subject 01005)	%Dose in pooled feces ([2]; subject 01005)	%AUC in AUC-pooled plasma ([2]; subject 01006)	%Dose in pooled feces ([2]; subject 01006)	enzyme involved in the formation of the metabolite from amdizalisib [1]	Plasma %AUC (percentage of total plasma radioactivity) [2]	Urine %Dose [2]	further results
CC(=O)c1cc2ncc(Cl)n2nc1-c1ccccc1 [M271]	+	+	+	detected by mass spectrometry, but could not be quantified and +											detected by mass spectrometry, but could not be quantified and +	detected by mass spectrometry, but could not be quantified and +	
